Test results: PMC4700278, “Molecular and Biochemical Analysis of the Estrogenic and Proliferative Properties of Vitamin E Compounds” (Frontiers in Oncology, 2016)

Key:
ERα [1] = target: T1, ERα (Homo sapiens, UniProt P03372); experiment: ERE-luciferase reporter assay in HELN-ERα cells; format: cell-based; design: endogenous in cells; host or cells: MCF-7; conditions: 500 μM
T1 sequence (P03372 1-595): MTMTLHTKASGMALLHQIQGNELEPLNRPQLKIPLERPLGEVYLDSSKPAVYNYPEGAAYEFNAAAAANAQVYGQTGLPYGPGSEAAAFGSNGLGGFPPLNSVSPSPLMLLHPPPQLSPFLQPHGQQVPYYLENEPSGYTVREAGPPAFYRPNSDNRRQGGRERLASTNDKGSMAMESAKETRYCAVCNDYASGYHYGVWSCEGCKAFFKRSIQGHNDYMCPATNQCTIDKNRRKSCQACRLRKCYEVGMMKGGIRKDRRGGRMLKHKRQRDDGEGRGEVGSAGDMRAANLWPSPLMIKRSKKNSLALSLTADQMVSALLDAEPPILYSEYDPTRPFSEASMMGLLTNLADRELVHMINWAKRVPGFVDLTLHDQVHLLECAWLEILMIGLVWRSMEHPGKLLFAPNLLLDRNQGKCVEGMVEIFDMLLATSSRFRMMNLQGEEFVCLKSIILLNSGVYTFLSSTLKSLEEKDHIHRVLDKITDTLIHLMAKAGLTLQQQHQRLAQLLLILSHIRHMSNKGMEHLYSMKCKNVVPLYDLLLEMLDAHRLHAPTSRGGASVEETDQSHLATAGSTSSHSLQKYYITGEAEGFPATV
Description: MELN cells were established by transfecting ER(+) MCF-7 cells with the ERE-β-globin-tk-Luc-SV-Neo plasmid ([36]). HELN cells were generated by transfection of ER(−) HeLa cells with this plasmid. The HELN-ERα, HELN-ERβ, HELN-ΔAB-ERα, and HELN-ΔAB-ERβ cell lines then underwent a second transfection with the corresponding pSG5-puro plasmids (pSG5-ERα-puro, pSG5-ERβ-puro, pSG5-ΔAB-ERα-puro, and pSG5-ΔAB-ERβ-puro, respectively) and expressed wild-type or mutated ERα or ERβ ([39], [40]). […] Luciferase activity was measured using the luciferase assay reagent (Promega), according to the manufacturer’s instructions. Protein concentrations were measured using the Bradford technique ([41]) to normalize the luciferase activity data. For each condition, average luciferase activity was calculated from the data of three independent wells.
Figure 3 Measurement of estrogenicity of tocols in vitro. […] MCF-7 extracts were analyzed for the presence of ERα by western blotting using GAPDH as a control. […] The ratio of ERα to GAPDH levels in each experiment was determined densitometrically and normalized to control value (taken to be 1). […] The relative expression of TGFα, PR, and Ps2 (TFF1) after 16 h was analyzed by quantitative RT-PCR. […]

MCF-7 (ER(+)) cells = experiment: Cell proliferation assay (sulforhodamine B); format: cell-based, human; conditions: 500 μM δ-TP or δ-TT; 30 μM lovastatin; 6-day period
Description: MCF-7 (ER(+)), T47D (ER(+)), and MDA-MB-231 (ER(−)) cell lines were from ATCC. Cell lines were maintained at 37°C in a humidified incubator in a 5% CO2-enriched atmosphere in T-75 flasks. […] Cells were grown for 24 h before treatment in phenol red-free medium containing 5% DCC-FCS. Cells were seeded into 96-well plates at 2000 cells/well. Treatment media (150 μl/well) was added on the following day and replaced at 48-h intervals until the end of the experiment. Cell density was measured via the sulforhodamine B method ([43]) after 0, 2, 4, 6, and 8 days. The absorbance of SRB was measured directly at 490 nm in the 96-well plates using a multiskan® multisoft reader from Labsystem.

ERα [2] = target: T1, ERα; experiment: Estrogen receptor-binding assay, competition with [3H]-17β-estradiol; design: expressed in transfected cells; host or cells: Cos-7; conditions: extracts of cos-7 cells expressing human ERα; 2 nM [3H]-E2; tocols 1 μM to 1 mM; N.M. = not measurable

CC(C)=CCC/C(C)=C/CC/C(C)=C/CC[C@]1(C)CCc2cc(O)cc(C)c2O1 [δ-TT, δ-tocotrienol]
ER-dependent luciferase activity through ERα (ERα [1]): activate ER-dependent luciferase activity
effect on MCF-7 cell proliferation (MCF-7 (ER(+)) cells): inhibited the proliferation
IC50 (ERα [2]): 96 ± 6 µM

Cc1cc(O)cc2c1OC(C)(CCCC(C)CCCC(C)CCCC(C)C)CC2 (stereo not drawn) [δ-TP, δ-tocopherol]
ER-dependent luciferase activity through ERα (ERα [1]): activate ER-dependent luciferase activity
effect on MCF-7 cell proliferation (MCF-7 (ER(+)) cells): significant stimulation
IC50 (ERα [2]): 118 ± 15 µM
